Values after ≈ are worked out from the molar mass of the structure shown.
What was measured:
[1] = Stability in human plasma; type: in vitro ADME; conditions: read-out: Plasma Stability T1/2
Description: Stability in Human Plasma.
Stock compounds were prepared for testing the stability in human plasma. First, 0.05 M sodium phosphate and 0.07 M NaCl buffer, pH 7.4, were pre-heated. In deionized water, 14.505 g/L Na2HPO 12H2O, 1.483 g/L NaH2PO4.2H2O and 4.095 g/L NaCl were dissolved. The basic solution was titrated with the phosphoric acid to pH 7.40. Frozen plasma was quickly thawed at 37° C. The plasma was centrifuged at 3,000 rpm for 8 minutes to remove clots, then pipetted and pooled as the plasma stock for the experiment. Only plasma within the range of pH 7.4 to pH 8 was used. If higher than pH 8, the plasma was discarded. The initial pH of the plasma was not adjusted to pH 7.4 with acid or by bubbling with carbon dioxide. By using a 5% carbon dioxide incubator and PBS buffer, a pH of 7.4 will be reached after the 4-hour equilibrium dialysis time. Plasma was iced until use.
Spiking solution A with 0.5 mM testing compounds was prepared by adding 10 μL of 10 mM test compounds stock solution to 190 μL DMSO. Spiking solution B with 0.02 mM testing compound was prepared by adding 40 μL of spiking solution A to 960 μL of […] sodium phosphate buffer with 0.5% BSA. The plasma and spiking solution B were prewarmed at 37° C. for 5 minutes. Ten μL of pre-warmed spiking solution B was added into the wells designated for all the time points (5, 15, 30, 45, 60 minutes). For the 0-minute timepoint, 400 μL acetonitrile containing internal standard were added to the wells of 0-minute plate and then 90 μL plasma were added. For the other timepoints, 90 μL of pre-warmed plasma were added into the wells (0, 5, 15, 30, 45, 60 minutes) and the timing was started. At 5, 15, 30, 45, 60 minutes, 400 μL acetonitrile containing internal standard were added to the wells of corresponding plates, respectively, to stop the reaction. After quenching, the plates were shaken on a vibrator (IKA, MTS 2/4) for 10 minutes at 600 rpm and then centrifuged at 5594×g for 15 minutes (Thermo Multifuge×3R). Fifty μL of supernatant was transferred from each well into a 96-well sample plate containing 50 μL ultra-pure water (Millipore, ZMQS50F01) for LC/MS analysis.

[2] = target: glycolate oxidase (GOX) in HepaRG-CAR cells (Homo sapiens (Human), UniProt Q9UJM8); experiment: HepaRG-CAR cell-based assay for quantitation of glycolate oxidase inhibition (cellular glycolate flux, GC-MS); conditions: HepaRG-CAR cells, 500 μM glycolate, 48 hours incubation; read-out: IC50
Chain of glycolate oxidase (GOX) in HepaRG-CAR cells (Q9UJM8 whole entry): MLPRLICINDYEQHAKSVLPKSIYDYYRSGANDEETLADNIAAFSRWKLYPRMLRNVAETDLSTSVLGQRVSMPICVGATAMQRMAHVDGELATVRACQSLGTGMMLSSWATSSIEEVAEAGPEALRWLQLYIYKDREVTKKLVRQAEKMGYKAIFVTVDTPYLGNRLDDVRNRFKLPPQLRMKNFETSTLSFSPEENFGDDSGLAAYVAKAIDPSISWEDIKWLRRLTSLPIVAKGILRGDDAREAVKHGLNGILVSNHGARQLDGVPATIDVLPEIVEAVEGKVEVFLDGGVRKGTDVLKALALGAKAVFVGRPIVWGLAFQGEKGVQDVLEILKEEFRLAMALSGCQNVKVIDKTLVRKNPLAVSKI

[3] = Protein binding (plasma equilibrium dialysis); type: in vitro ADME; conditions: 5 hours at 37° C.; for fraction unbound at 5 h, 1 μM: read-out: Protein Binding Fraction Bound (converted)
Description: For testing protein binding of stock compounds solubilized in DMSO, spiking solutions of test and reference compounds were prepared. Solution A (0.5 mM) was prepared by adding 10 μL of 10 mM stock solution into 190 μL of DMSO. Solution B (0.02 mM) was prepared by adding 8 μL of Solution A into 192 μL of 0.05 M sodium phosphate buffer. The final DMSO concentration in Solution B was 4%.
To prepare test and reference compounds in plasma, a 96-well plate with 380 μL aliquots of plasma in the wells designed for plasma and buffer, respectively. Twenty μL of Solution B (0.02 mM of test and reference compounds) were spiked into the pre-loaded plasma in the 96-well plate. The final test concentration is 1 μM containing 0.2% DMSO.
For dialysis sample loading a plasma again buffer system was prepared by applying aliquots of 100 μL of blank dialysis buffer to the receiver side of dialysis chambers and then applying aliquots of 100 μL of the plasma spiked with test and reference compounds to the donor side of the dialysis chamber. A 25-μL aliquot of the plasma spiked with test and reference compounds was added into a 96-well sample preparation plate as T″0″ plasma samples. Aliquots were mixed with the same volume of blank buffer (50:50, volume:volume). Samples were quenched with 200 μL of acetonitrile containing internal standard. The dialysis block was covered and a shaken at 60 rpm for 5 hours at 37° C.
After a 5-hour incubation, dialyzed samples were prepared from 25-μL aliquots from both the donor and receiver sides of the dialysis apparatus into new sample preparation plates. The aliquots were mixed with same volume of opposite matrixes. The samples were quenched with 200 μL acetonitrile containing internal standard. All 0-hour and 5-hour samples were vortexed at 600 rpm for 10 min followed by centrifugation at 5594×g for 15 minutes (Thermo Multifuge×3R). Fifty μL of the supernatants were transferred to anew 96-well plate and mixed with 50 μL Milli-Q water. The sample plate was covered and frozen at −20° C. until LC/MS/MS analysis.

[4] = target: recombinant full-length human hydroxyacid oxidase 1 (HAO1), the equivalent of hGOX (Homo sapiens (Human), UniProt Q9UJM8); experiment: In-vitro human glycolate oxidase (hGOX) assay (Amplex red/HRP fluorescence); type: biochemical
Chain of recombinant full-length human hydroxyacid oxidase 1 (HAO1), the equivalent of hGOX (Q9UJM8 whole entry): as above
Description: Biological Activity Assay: In-Vitro Human Glycolate Oxidase (hGOX) Assay
The in-vitro glycolate oxidase assay was performed using recombinant full-length human hydroxyacid oxidase 1 (HAO1), the equivalent of hGOX. […] Purified HAO1 was dissolved in assay buffer consisting of 10 mM NaCl, 110 mM KCl, 2 mM MgCl2, 50 mM HEPES (pH 7.4) and 0.01% Triton™ X-100.

[5] = Solubility in phosphate buffered saline (PBS), pH 7.4; type: physicochemical; conditions: phosphate buffer (PBS), aqueous buffer, kinetic from dmso stock; phosphate buffered saline pH 7.4, 1% DMSO, 1 hour shaking at room temperature
Description: (§1) For testing compound solubility in phosphate buffered saline (PBS), compound stock solutions were prepared at 10 mM in 100% DMSO. For testing in aqueous solution, the phosphate buffer was replaced with deionized, distilled water. Eleven grams Na2HPO4 (FW: 141.96 g/mol) and 3.5 g NaH2PO4.2H2O (FW: 156.03 g/mol) was added to 1 L Milli-Q water and adjusted to a pH to 7.4 with phosphoric acid or sodium hydroxide. For incubation, media were preheated to 37° C. Eight μL aliquots of reference and test compound stock solutions (10 mM) were added into 792 μL of 100 mM phosphate buffer (pH 7.4). The final DMSO concentration was 1%. Sample tubes were shaken for 1 hour at 1000 rpm at room temperature.
(§2) The calibration curve was prepared with 300-μM spiking solution (SS) in MeOH:acetonitrile (4:1). Six μL of 10 mM compound was added in 194 μL MeOH/acetonitrile (4:1). Samples were centrifuged for 10 minutes at 12,000 rpm to precipitate undissolved particles. Supernatants were transferred to a new tube or plate and dilute 10-fold and 100-fold with 100 mM buffer. Samples were prepared for LC-MS/MS analysis by adding 5 μL each sample (undiluted, 10-fold diluted, and 100-fold diluted) and 5 μL of standard curve samples to 95 μL of acetonitrile (containing internal standard).

[6] = Solubility in aqueous solution (deionized, distilled water); type: physicochemical; conditions: kinetic from dmso stock, 1% DMSO, read-out: Aqueous Solubility H2O
Description: as §1, §2

[7] = Metabolic stability in human liver microsomal preparation; type: in vitro ADME; conditions: pH 7.4, human liver microsomes, NADPH, 37° C.; for half-life at 1 μM: 0-45 min, read-out: Metabolic Stability t1/2
Description: For evaluating the metabolic stability in human liver microsomal preparation, three buffers were prepared. Buffer A had 1.0 L of 0.1 M monobasic potassium phosphate buffer containing 1.0 mM EDTA. Buffer B had 1.0 L of 0.1 M dibasic potassium phosphate buffer containing 1.0 mM EDTA. Buffer C had 0.1 M potassium phosphate buffer, 1.0 mM EDTA, adjusted to a pH 7.4 via titrating 700 mL buffer B with buffer A. Reference compound (ketanserin) and test compounds spiking solutions (500 μM) were prepared by adding 10 μL of 10 mM DMSO stock compound solution into 190 μL acetonitrile. A volume of 1.5 μL 500 μM spiking solution and 18.75 μL 20 mg/mL human liver microsomes were added into 479.75 μL of Buffer C on ice. A stock solution of 6 mM NADPH was prepared by dissolving NADPH into Buffer C.
Wells on an assay plate were iced and filled with 30 μL 1.5-μM spiking solution containing 0.75 mg/mL microsomes solution and designated for different timepoints (0-, 5-, 15-, 30-, 45-min). For the 0-min timepoint, 135 μL acetonitrile containing internal standard were added followed by 15 μL of NADPH stock solution (6 mM). All other plates were preincubated at 37° C. for 5 minutes and 15 μL NADPH stock solution (6 mM) were added to the plates to start the reaction. At 5-min, 15-min, 30-min, and 45-min, 135 μL acetonitrile containing internal standard were added to the wells of corresponding plates, respectively, to stop the reaction. After quenching, the plates were shaken on the vibrator (IKA, MTS 2/4) for 10 min at 600 rpm and then centrifuged at 5594×g for 15 minutes (Thermo Multifuge×3R). Fifty μL supernatant from each well were transported into a 96-well sample plate containing 50 μL of ultra-pure water (Millipore, ZMQS50F01) for LC/MS analysis.

SMILES	half-life at 2 μM [1]	IC50 [2]	recovery at 5 h, 1 μM [3]	IC50 [4]	solubility at 1 h [5]	solubility at 1 h [6]	CLint scaled at 1 μM [7]	half-life at 1 μM [7]	fraction unbound at 5 h, 1 μM [3]
O=C(O)c1[nH]nnc1Oc1ccc(-c2ccc(Cl)cc2)cc1 [Example I-152, 5-((4′-Chloro-[1,1′-biphenyl]-4-yl)oxy)-1H-1,2,3-triazole-4-carboxylic acid]	3.22 h	10000 nM	97.7%	17 nM	–	–	–	–	–
CCC(CC)c1cccc(Oc2[nH]nnc2C(=O)O)c1 [Example I-276, 5-(3-(Pentan-3-yl)phenoxy)-1H-1,2,3-triazole-4-carboxylic acid]	3.2 h	–	108%	23 nM	109 µM (≈ 30 µg/mL)	103 µM (≈ 28.4 µg/mL)	5.95 mL/min/kg	4.87 h	0.006
CC(C)=Cc1ccc(Oc2[nH]nnc2C(=O)O)cc1 [Example I-287, 5-(4-(2-Methylprop-1-en-1-yl)phenoxy)-1H-1,2,3-triazole-4-carboxylic acid]	1.72 h	–	109%	20 nM	85.7 µM (≈ 22.2 µg/mL)	82.5 µM (≈ 21.4 µg/mL)	13.4 mL/min/kg	2.16 h	0.002
O=C(O)c1nn[nH]c1Oc1cccc(C2CCCC2)c1 [Example I-267, 5-(3-Cyclopentylphenoxy)-1H-1,2,3-triazole-4-carboxylic acid]	1.15 h	–	113%	35 nM	79.8 µM (≈ 21.8 µg/mL)	82.6 µM (≈ 22.6 µg/mL)	< 0.15 mL/min/kg	> 83.3 h	–
O=C(O)c1nn[nH]c1Sc1ccc(-c2ccccc2)cc1 [Example I-128, 5-([1,1′-Biphenyl]-4-ylthio)-1H-1,2,3-triazole-4-carboxylic acid]	0.755 h	–	126%	227 nM	122 µM (≈ 36.4 µg/mL)	106 µM (≈ 31.5 µg/mL)	10.1 mL/min/kg	2.87 h	–
O=C(O)c1nn[nH]c1Oc1ccc(-c2ccc3ccccc3c2)cc1 [Example I-177, 5-(4-(Naphthalen-2-yl)phenoxy)-1H-1,2,3-triazole-4-carboxylic acid]	1.12 h	–	99.3%	12 nM	89.3 µM (≈ 29.6 µg/mL)	45.7 µM (≈ 15.1 µg/mL)	3.07 mL/min/kg	9.43 h	–
O=C(O)c1nn[nH]c1Oc1ccc(C2CCCC2)cc1 [Example I-265, 5-(4-Cyclopentylphenoxy)-1H-1,2,3-triazole-4-carboxylic acid]	1.44 h	–	110%	25 nM	107 µM (≈ 29.2 µg/mL)	100 µM (≈ 27.4 µg/mL)	18.6 mL/min/kg	1.55 h	–
O=C(O)c1nn[nH]c1Oc1ccc(-c2ccccc2)cc1 [Example I-150, 5-([1,1′-Biphenyl]-4-yloxy)-1H-1,2,3-triazole-4-carboxylic acid]	0.747 h	–	100%	23 nM	95.7 µM (≈ 26.9 µg/mL)	83.1 µM (≈ 23.4 µg/mL)	3.04 mL/min/kg	8.78 h	–
O=C(O)c1[nH]nnc1Oc1ccc(C2CCCCC2)cc1 [Example I-266, 5-(4-Cyclohexylphenoxy)-1H-1,2,3-triazole-4-carboxylic acid]	3.11 h	–	101%	30 nM	96.5 µM (≈ 27.7 µg/mL)	108 µM (≈ 31 µg/mL)	26.4 mL/min/kg	1.1 h	–
CS(=O)(=O)c1ccc(-c2ccc(Oc3[nH]nnc3C(=O)O)cc2)cc1 [Example I-167, 5-((4′-(methylsulfonyl)-[1,1′-biphenyl]-4-yl)oxy)-1H-1,2,3-triazole-4-carboxylic acid]	6.19 h	–	95.5%	8 nM	116 µM (≈ 41.9 µg/mL)	112 µM (≈ 40.4 µg/mL)	1.7 mL/min/kg	17 h	–
O=C(O)c1nn[nH]c1Oc1cccc(C2CCCCC2)c1 [Example I-268, 5-(3-Cyclohexylphenoxy)-1H-1,2,3-triazole-4-carboxylic acid]	1.84 h	–	106%	51 nM	97.6 µM (≈ 28 µg/mL)	111 µM (≈ 31.9 µg/mL)	84.2 mL/min/kg	0.344 h	–

Reference: patent publication US11389456B2, “Compounds and methods for treating oxalate-related diseases” (OxaluRx, Inc., priority 2018, dated 2022)
